In the assay the target is T1, endogenous P2X4 channels (Homo sapiens, UniProt Q99571).
T1 construct: measure calcium influx through endogenous P2X4 channels into primary human monocytes; endogenous in cells; host or cells: primary human monocytes isolated from donor PBMCs
T1 sequence (Q99571 1-388): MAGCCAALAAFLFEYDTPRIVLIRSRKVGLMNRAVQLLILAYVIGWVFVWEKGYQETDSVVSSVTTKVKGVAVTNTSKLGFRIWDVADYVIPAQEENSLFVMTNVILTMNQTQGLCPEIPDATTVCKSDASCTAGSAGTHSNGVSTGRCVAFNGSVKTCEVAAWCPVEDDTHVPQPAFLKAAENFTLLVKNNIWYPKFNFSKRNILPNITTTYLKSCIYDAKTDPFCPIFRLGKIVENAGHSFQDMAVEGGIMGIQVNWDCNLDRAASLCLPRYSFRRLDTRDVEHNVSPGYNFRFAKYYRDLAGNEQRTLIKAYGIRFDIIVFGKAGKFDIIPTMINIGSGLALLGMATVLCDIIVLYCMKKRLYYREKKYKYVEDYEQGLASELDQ
Kind of assay: Human Monocyte P2X4 Assay (FLIPR). The conditions noted are these: primary human monocytes, 3 μM BzATP, one value per donor; for IC50: read-out: Human P2X4 Monocytes (FLIPR Assay) IC50 for different donors; for Emax: read-out: Human P2X4 Monocytes (FLIPR Assay) Efficacy for different donors. The class given is cell-based. How it is done:
The principle of the assay is to measure calcium influx through endogenous P2X4 channels into primary human monocytes, following activation by 2′,3′-O-(4-benzoyl-benzoyl)-ATP (Bz-ATP). Intracellular calcium concentration changes were measured with a Flipr™ (Molecular Devices) device using a calcium sensitive dye (Fluo-8). In primary monocytes P2X4 is located at the lysosome membrane, therefore exocytosis has to be triggered to expose P2X4 at the cellular membrane.
Human peripheral blood mononuclear cells (PBMCs) from anticoagulated blood (blood cells, BC) were isolated via density gradient centrifugation. Whole blood was diluted 1:3 with PBS. Samples of 30 mL were layered carefully on top of 15 mL Biocoll (BIOCHROM) in 50 mL centrifuge tubes (Falcon). Tubes were centrifuged at 914×g for 25 min at RT without brake. The PBMC layer was removed with a 10 mL pipette and transferred into tubes with ice-cold PBS in a total volume of 50 mL. Cells were washed twice by pelleting at 300×g at 4° C., for 10 min and for 5 min respectively. PBMCs were re-suspended in 10 mL medium (X-vivo, Biozym Scientific) and counted in a Neubauer chamber.
Monocytes were isolated by negative selection using the Monocyte isolation kit II from Miltenyi (#130-091-153) according to the instructions. Isolation should be done fast and cells and solutions should be kept on ice at any time. PBMCs in batches of 10exp8 cells were pelleted (300×g, 10 min) and re-suspended with 300 μL MACS buffer in a 50 mL Falcon tube. FcR Blocking reagent (100 μl) and Biotin-Ab (100 μl) were added, mixed and incubated on ice for 10 min. MACS buffer (300 μL) and anti-Biotin Micro-beads (100 μL) were added, mixed and incubated on ice for 15 min. Cells were washed by pelleting (300×g for 10 min) and re-suspended in 500 μL MACS buffer. For each batch one separation column was placed in the MACS separator and rinsed with 3 mL MACS buffer. The cell suspension was added to the column, followed by 3×3 mL MACS buffer for washing, and the eluent containing the monocytes was collected. Cells were pelleted (300×g for 10 min), re-suspended in X-vivo medium and counted. Monocytes were seeded into fibronectin-coated micro-plates (384-well, black, flat transparent bottom; Corning #3848) at a density of 30,000 cells/well in 50 μL, and cultivated over night (37° C., 5% CO2).
Test substances were dissolved in 100% DMSO at a stock concentration of 10 mM and stored at −20° C. in aliquots. Serial dilutions (2×) were prepared in DMSO and diluted 500× with assay buffer to generate the antagonist plate. In the Flipr measurement, 10 μL per well were transferred (4× dilution) and a final top concentrations of 5 μM and 0.05% DMSO were obtained in the assay. Agonist BzATP was stored at 10 mM in aliquots and diluted to an intermediate concentration of 15 μM to generate the agonist plate. In the Flipr measurement, 10 μL per well were transferred (5× dilution) so that a final assay concentration of 3 μM was obtained.
For the experiment, the medium of the cell plate was discarded manually and 70 μL/well loading buffer was added and incubated for 1 h (37° C., 5% CO2). Loading buffer contained HBSS (w/o calcium/magnesium), 10 mM Hepes pH 7.4, 5 μM Fluo-8 (AM) (Tebu-bio) and 50 mM methylamine (Sigma) to trigger exocytosis. Loading buffer was discarded manually and 30 μL/well low-calcium assay buffer (5 mM KCl, 145 mM NaCl, 0.5 mM CaCl2), 13 mM glucose, 10 mM Hepes pH 7.4) was added. The antagonist plate was transferred (10 μL/well) and after 15 min at RT the agonist plate (10 μL/well) was transferred.
Agonist addition was recorded for 240 seconds after a 10 second baseline. For analysis, a baseline correction was applied, and the maximum of the curve was extracted. Data were normalized towards 0% inhibition (signal at 3 μM BzATP) and 100% inhibition (absence of BzATP stimulation) and fitted with a four-parameter sigmoidal inhibition curve using Prism Graph Pad to obtain IC50 values.

Values joined by “and” are separate entries in the source; they are usually repeats but may differ in a detail not shown here. Equal entries are not always repeated.

As a reminder, the IC50 is the concentration needed to halve the response being measured.

Consider `NS(=O)(=O)c1cc(NC(=O)Cc2ccccc2Cl)ccc1-n1cc(C(F)(F)F)cn1` [Example 19, 2-(2-Chlorophenyl)-N-{3-sulfamoyl-4-[4-(trifluoromethyl)-1H-pyrazol-1-yl]phenyl}acetamide], for which the IC50 is 59 nM (2×) and 21 nM and 76 nM and 45 nM.
On to `NS(=O)(=O)c1cc(NC(=O)Cc2ccccc2Cl)ccc1-n1cc(F)cn1` [Example 26, 2-(2-Chlorophenyl)-N-[4-(4-fluoro-1H-pyrazol-1-yl)-3-sulfamoylphenyl]acetamide], for which the Emax was found to be 71%; the IC50 was 290 nM and 182 nM.
Turning to `N#Cc1cnn(-c2ccc(NC(=O)Cc3ccccc3Cl)cc2S(N)(=O)=O)c1` [Example 39, 2-(2-Chlorophenyl)-N-[4-(4-cyano-1H-pyrazol-1-yl)-3-sulfamoylphenyl]acetamide], the Emax came out at 88%; the IC50 was 105 nM and 32 nM and 71 nM.
`NS(=O)(=O)c1cc(NC(=O)Cc2ccccc2Cl)ccc1-c1cnn(C(F)F)c1` [Example 326, 2-(2-Chlorophenyl)-N-{4-[1-(difluoromethyl)-1H-pyrazol-4-yl]-3-sulfamoylphenyl}acetamide]: the IC50 is 407 nM and 167 nM and 149 nM and 45 nM and 49 nM.
On the same count and under the same terms, the result for `NS(=O)(=O)c1cc(NC(=O)Cc2ccccc2Cl)cnc1-n1cc(C(F)(F)F)cn1` [Example 380, 2-(2-Chlorophenyl)-N-{5-sulfamoyl-6-[4-(trifluoromethyl)-1H-pyrazol-1-yl]pyridin-3-yl}acetamide] reads 263 nM and 251 nM and 434 nM and 93 nM and 50 nM and 207 nM.

For the origin of these results see US20210179577A1, “AROMATIC SULFONAMIDE DERIVATIVES FOR THE TREATMENT OF ISCHEMIC STROKE” (Bayer Aktiengesellschaft, priority 2017, published 2021).
